According to US9909107B2, “Brassica AHAS genes and gene alleles that provide resistance to imidazolinone herbicides” (priority 2004, dated 2018):
Values joined by “and” are separate entries in the source; they are usually repeats but may differ in a detail not shown here. Identical values can stand only once.

Legend:
[1] = tested on: AHAS enzyme in leaf discs of Susceptible check (B. juncea variety 'Arid'); assay: AHAS activity assay of leaf discs, susceptible check; format: biochemical, Brassica juncea
Description: (§1) Leaf discs were removed from seedling leaves of J04E-0044 and subjected to an assay of AHAS activity, as described by Singh et al. (Anal. Biochem. 171: 173-179, 1988). The assay measures AHAS activity by estimating the amount of product, acetolactate, after conversion by decarboxylation in the presence of acid to acetoin. The assay compares the AHAS activity in two leaf discs. The control leaf disc was incubated in 10 mM phosphate buffer (pH 6.0) containing 50 mM pyruvate, 500 uM cyclopropane dicarboxylic acid (CPCA), 10% M&S salts and 0.5% alanine. The other leaf disc was in the same buffer in the presence of 2.5 uM imazamox, an imidazolinone herbicide. The herbicide normally binds to the AHAS enzyme and inhibits activity. The incubations were carried out at 22° C. for 16 hrs followed by measuring the absorbance at A530 nm. A completely herbicide susceptible plant will have an AHAS activity level near zero when exposed to an inhibitory herbicide, while a tolerant plant will have AHAS activity nearly equal to that of the control. A plant with a mutated AHAS gene in one genome but not the other will have intermediate AHAS activity in the present of enzyme inhibitor. The procedure was modified to include the addition of cydopropane dicarboxylic acid (CPCA), which prevents the further conversion of acetolactate to valine and leucine. In addition to an imidazolinone herbicide as an inhibitor, a sulfonylurea herbicide (chlorsulfuron) was also used on separate leaf discs to test for cross-tolerance in the same way except that 0.2 uM chlorsulfuron was used instead of 2.5 uM imazamox. In this table, the line PM1 is a B. napus variety with a mutation affecting the AHAS1 gene in the C genome only and PM2 is a B. napus variety with a mutation in the AHAS3 gene, located in the A genome. Susceptible check is a commercial B. juncea variety.

[2] = molecular target: T1, AHAS enzyme in leaf discs of PM2 (mutation in the AHAS3 gene, A genome) (Brassica napus, UniProt P27819, W556L); assay: AHAS activity assay of leaf discs, line PM2; format: biochemical; conditions: for tolerance provided by the mutation (in words): PM2 mutation in the A genome
T1 construct: Relative AHAS activity of leaf discs exposed; from tissue; host or cells: leaf discs of B. napus line PM2
Description: as §1

[3] = molecular target: T2, AHAS enzyme in leaf discs of PM1 (mutation affecting the AHAS1 gene in the C genome) (Brassica napus, UniProt P27818, S638N); assay: AHAS activity assay of leaf discs, line PM1; format: biochemical; conditions: for tolerance provided by the mutation (in words): PM1 mutation
T2 construct: Relative AHAS activity of leaf discs exposed; from tissue; host or cells: leaf discs of B. napus line PM1
Description: as §1

[4] = tested on: AHAS enzyme in leaf discs of J04E-0044 (BjAHAS-bR mutant allele); assay: AHAS activity assay of leaf discs, line J04E-0044; format: biochemical, Brassica juncea; conditions: for tolerance provided by the mutation (in words): mutation in B. juncea variety J04E-0044
Description: as §1

T2 sequence (P27818 83-655 S638N): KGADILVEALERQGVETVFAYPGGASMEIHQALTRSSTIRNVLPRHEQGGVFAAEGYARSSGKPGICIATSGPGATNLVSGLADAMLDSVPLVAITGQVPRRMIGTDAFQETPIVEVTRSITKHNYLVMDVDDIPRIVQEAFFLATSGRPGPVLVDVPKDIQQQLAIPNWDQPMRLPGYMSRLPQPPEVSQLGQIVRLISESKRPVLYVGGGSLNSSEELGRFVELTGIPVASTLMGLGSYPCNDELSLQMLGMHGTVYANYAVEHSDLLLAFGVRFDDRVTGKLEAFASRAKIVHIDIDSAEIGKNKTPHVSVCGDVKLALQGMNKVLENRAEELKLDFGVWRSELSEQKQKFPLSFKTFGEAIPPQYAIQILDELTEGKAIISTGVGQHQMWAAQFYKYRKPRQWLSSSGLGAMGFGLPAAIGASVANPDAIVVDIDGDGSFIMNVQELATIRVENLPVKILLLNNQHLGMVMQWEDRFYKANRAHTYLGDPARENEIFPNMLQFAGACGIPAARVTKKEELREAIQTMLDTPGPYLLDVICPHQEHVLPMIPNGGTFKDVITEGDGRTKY
T1 sequence (P27819 70-652 W556L): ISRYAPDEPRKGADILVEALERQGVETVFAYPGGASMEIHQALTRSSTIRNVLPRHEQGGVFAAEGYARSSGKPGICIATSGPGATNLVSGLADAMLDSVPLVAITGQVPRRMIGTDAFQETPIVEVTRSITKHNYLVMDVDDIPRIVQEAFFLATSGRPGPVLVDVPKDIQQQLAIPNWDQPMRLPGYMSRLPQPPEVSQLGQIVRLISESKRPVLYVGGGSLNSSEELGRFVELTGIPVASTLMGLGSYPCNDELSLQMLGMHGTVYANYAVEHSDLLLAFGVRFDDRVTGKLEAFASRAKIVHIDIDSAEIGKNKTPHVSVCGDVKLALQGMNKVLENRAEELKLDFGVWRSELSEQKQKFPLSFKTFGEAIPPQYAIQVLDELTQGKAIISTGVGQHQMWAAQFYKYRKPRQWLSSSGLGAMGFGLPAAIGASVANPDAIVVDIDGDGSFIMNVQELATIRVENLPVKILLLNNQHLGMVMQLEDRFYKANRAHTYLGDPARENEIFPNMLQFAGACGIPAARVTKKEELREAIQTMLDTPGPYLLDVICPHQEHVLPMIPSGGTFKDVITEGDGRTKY

Compound	Relative AHAS activity with chlorsulfuron (0-1) ([1]; Susceptible check leaf disc, 0.2 uM chlorsulfuron vs control disc, 22° C., 16 hrs, scale 0-1)	tolerance provided by the mutation (in words) [2]	tolerance provided by the mutation (in words) [3]	tolerance provided by the mutation (in words) [4]	AHAS activity in the presence of an imidazolinone herbicide relative to without the inhibitor ([1]; Arid (susceptible check))	Relative AHAS activity with imidazolinone (0-1) ([1]; Susceptible check leaf disc, 2.5 uM imazamox vs control disc, 22° C., 16 hrs, scale 0-1)	Relative AHAS activity with imidazolinone (0-1) ([2]; PM2 leaf disc, 2.5 uM imazamox vs control disc, 22° C., 16 hrs, scale 0-1, assays #1-2)	Relative AHAS activity with imidazolinone (0-1) ([3]; PM1 leaf disc, 2.5 uM imazamox vs control disc, 22° C., 16 hrs, scale 0-1, assays #1-3)	relative AHAS activity ([4]; J04E-0044, imidazolinone as AHAS activity inhibitor (Table 1))	Relative AHAS activity with imidazolinone (0-1) ([4]; J04E-0044 leaf disc, 2.5 uM imazamox vs control disc, 22° C., 16 hrs, scale 0-1, assays #1-3)
COc1nc(C)nc(NC(=O)NS(=O)(=O)c2ccccc2Cl)n1 [chlorsulfuron]	0.029	tolerance	no tolerance	little tolerance						
COCc1cnc(C2=NC(C)(C(C)C)C(=O)N2)c(C(=O)O)c1 (stereo not shown) [imidazolinone, imazamox]		tolerance	less tolerance	tolerance equal to that of PM2	less than 2%	0.018	0.607 and 0.722	0.256 and 0.292 and 0.276	70% and 79% and 91%	0.703 and 0.793 and 0.919
